According to patent US8748440B2 (Exelixis, Inc., priority 2002, dated 2014):

Molecular target: T1, FXR (CMX-hFXR) (Homo sapiens, UniProt Q96RI1)
T1 construct: expressed in transfected cells; host or cells: CV-1 African Green Monkey Kidney cells
T1 sequence (Q96RI1 1-472 isoform Q96RI1-2): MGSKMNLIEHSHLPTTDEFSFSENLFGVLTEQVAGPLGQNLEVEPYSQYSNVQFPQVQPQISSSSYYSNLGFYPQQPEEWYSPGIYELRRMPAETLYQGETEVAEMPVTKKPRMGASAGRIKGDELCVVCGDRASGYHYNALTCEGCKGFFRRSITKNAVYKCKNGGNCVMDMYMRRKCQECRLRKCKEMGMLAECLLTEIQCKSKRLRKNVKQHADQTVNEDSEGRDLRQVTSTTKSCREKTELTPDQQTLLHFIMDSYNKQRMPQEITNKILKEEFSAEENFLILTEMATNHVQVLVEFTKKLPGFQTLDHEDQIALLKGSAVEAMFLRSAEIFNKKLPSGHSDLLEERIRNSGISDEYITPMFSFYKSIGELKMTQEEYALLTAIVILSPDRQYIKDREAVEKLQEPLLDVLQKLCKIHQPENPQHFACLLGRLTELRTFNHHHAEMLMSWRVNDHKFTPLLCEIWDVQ
T1 sequence (P19793 1-462 partner): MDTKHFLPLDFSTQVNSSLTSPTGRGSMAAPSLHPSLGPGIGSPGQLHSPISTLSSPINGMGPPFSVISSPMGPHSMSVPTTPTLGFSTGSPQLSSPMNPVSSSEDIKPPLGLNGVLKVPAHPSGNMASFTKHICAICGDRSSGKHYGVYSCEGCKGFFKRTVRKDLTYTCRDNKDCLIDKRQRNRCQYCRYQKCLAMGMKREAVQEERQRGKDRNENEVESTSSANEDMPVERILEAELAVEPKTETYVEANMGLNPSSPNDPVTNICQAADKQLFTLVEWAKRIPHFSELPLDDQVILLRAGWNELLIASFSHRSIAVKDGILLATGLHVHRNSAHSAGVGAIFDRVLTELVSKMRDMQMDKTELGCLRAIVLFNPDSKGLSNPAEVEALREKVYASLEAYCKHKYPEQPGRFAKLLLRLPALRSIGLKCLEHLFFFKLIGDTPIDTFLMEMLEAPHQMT
Assay: FXR co-transfection assay (FXR/ECREx7)
Type: cell-based
Details: for EC50: CV-1 cells, agonist mode; for Emax: relative to maximum response of chenodeoxycholic acid (CDCA), read-out: % efficacy
Description: The basic co-transfection protocol for measuring FXR activity is as follows. CV-1 African Green Monkey Kidney cells are plated 24 hours before transfection to achieve approximately 70-80 percent confluency. Cells are transfected with CMX-hFXR, CMX-RXRα, Luc12 reporter (ECREx7-Tk-Luciferase), and a CMX-β-Galactosidase expression vector (See WO 00/76523). The transfection reagent used is DOTAP (Boehringer Mannheim). Cells are incubated with the DOTAP/DNA mixture for 5 hours after which the cells are harvested and plated onto either 96 well or 384 well plates containing the appropriate concentration of test compound. The assay is allowed to continue for an additional 18-20 hours, after which the cells are lysed, with lysis buffer (1% triton X 100, 10% glycerol, 5 mM Dithiothreitol, 1 mM EGTA, 25 mM Tricine, pH 7.8) and the luciferase activity is measured in the presence of Luciferase assay buffer (0.73 mM ATP, 22.3 mM Tricine, 0.11 mM EGTA, 0.55 mM Luciferin, 0.15 mM Coenzyme A, 0.5 mM HEPES, 10 mM Magnesium sulphate) on a standard luminometer plate reader (PE Biosystems, NorthStar Reader).
Both the FXR/ECREx7 co-transfection assay (Example 15) and the TR-FRET assay (Example 16) can be used to establish the EC50/IC50 values for potency and percent activity or inhibition for efficacy. Efficacy defines the activity of a compound relative to a high control (chenodeoxycholic acid, CDCA) or a low control (DMSO/vehicle). The dose response curves are generated from an 8 point curve with concentrations differing by 1/2 LOG units. Each point represents the average of 4 wells of data from a 384 well plate. The curve for the data is generated by using the equation: Y=Bottom+(Top−Bottom)/(1+10^((Log EC50−X)*HillSlope))
The EC50/IC50 is therefore defined as the concentration at which an agonist or antagonist elicits a response that is half way between the Top (maximum) and Bottom (baseline) values. The EC50/IC50 values represented are the averages of at least 3 independent experiments. The determination of the relative efficacy or % control for an agonist is by comparison to the maximum response achieved by chenodeoxycholic acid that is measured individually in each dose response experiment.
For the antagonist assay, CDCA is added to each well of a 384 well plate to elicit a response. The % inhibition for each antagonist is therefore a measurement of the inhibition of the activity of CDCA. In this example, 100% inhibition would indicate that the activity of CDCA has been reduced to baseline levels, defined as the activity of the assay in the presence of DMSO only.

COc1ccc(-n2c(C(C)N(C)S(=O)(=O)c3ccc(C(C)(C)C)cc3)nc3ccc(OC)cc3c2=O)cc1 (stereo not shown) [4-tert-butyl-N-{1-[6-methoxy-3-(4-methoxyphenyl)-4-oxo-3,4-dihydroquinazolin-2-yl]ethyl}-N-methylbenzenesulfonamide]
EC50: ~300 nM | Emax: ~190%

Cc1ccc(-n2c(C(C)N(C)S(=O)(=O)c3ccc(C(C)(C)C)cc3)nc3ccc(-c4cccs4)cc3c2=O)cc1 (stereo not shown)
EC50: ~600 nM | Emax: ~110%
